Source: US12600696B2 (XENIOPRO GMBH, priority 2017, dated 2026)

What was measured:
Assay type in all cases: cell-based
[1] = system: Notch signaling (hNotch1ΔE, human Notch1 receptor) in HeLa cells; assay: Notch reporter assay (luciferase luminescence readout in transfected HeLa cells); conditions: Homo sapiens, 20 hours, relative to DMSO baseline level of 1.0, read-out: AVEw, weighted arithmetic mean of double-normalized Notch-reporter luciferase luminescence values (Activity Range)
Summary of the method: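 HeLa cells were transiently transfected for 24 h with membrane-tethered constitutively active hNotch1ΔE, a CSL-promoter Firefly luciferase reporter and constitutive SV40-Renilla luciferase. Compounds were then applied at 10 μM (0.1% DMSO) for 20 h. Firefly/Renilla dual-luciferase ratios were normalized to DMSO control (baseline 1.0), outliers were excluded, and replicate values were averaged across ≥3 independent experiments.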

[2] = system: HPEKp cells (human epidermal keratinocyte progenitors, pooled); assay: alamarBlue proliferation assay with HPEKp cells; conditions: 120 h, relative to DMSO basis level 1.0, read-out: weighted arithmetic mean (AVEw) of normalized fluorescence intensity, activity range
Protocol: (§1) The antiproliferative activities of compounds falling under formula I, formula II, formula III, formula IV and formula V were investigated on cells or cell lines originating from a disorder of the myeloid cell compartment, the neuroendocrine system, the cervix, and the mucosal epithelium, as well as from the skin epithelium. To this end, HL-60 cells, TT cells, HeLa cells, CAL-27 cells and human primary epidermal keratinocytes (HPEK) were seeded into 96-well plates suitable for fluorescence assays (CORNING #3598) at following initial cell numbers: 1000 cells per well for HL-60; 9000 cells per well for TT; 2000 cells per well for HeLa, 2000 cells per well for CAL-27, 2000 cells per well for HPEK. The cells were treated with compounds at indicated final concentrations (diluted from the 1000× stock-solutions in DMSO to a final DMSO concentration of 0.1% v/v) or with the empty carrier DMSO at 0.1% v/v as control for 5 days. At day 5 after starting the treatments the cells were subjected to the alamarBlue® Proliferation Assay (Bio-Rad Serotec GmbH, BUF012B) according to the protocol of the manufacturer. The readout was taken with a multi-well plate-reader in the fluorescence mode with applying a filter for excitation at 560 nm (band width 10 nm) and for emission at 590 nm (band width 10 nm). Resveratrol (RES) treatment was included as control for growth inhibition.
(§2) The assays were performed in duplicate or more replicates of independent single experiments each containing a six-fold replicate for every condition. For every individual plate, the measured fluorescence intensity values of the conditions with compound treatment were normalized against the corresponding equally weighted arithmetic mean of the fluorescence intensity values of the six DMSO treated control wells in order to obtain the relative values to a baseline level of 1.0. The statistical calculations were performed in analogy to the luciferase assay as described above. To this end, two independent outlier analyses were performed according to the methods by Peirce and Chauvenet (Ross, Journal of Engineering Technology 2003, 1-12). Outliers confirmed by at least one of the methods were excluded from the calculations but not more than one value out of six per compound within a single experiment. The weighted arithmetic mean AVEw for each compound was calculated from the normalized values over all independent replicates of the single experiments comprising the six replicates each. The corresponding standard deviation for the weighted arithmetic mean was calculated according to the method described by Bronstein et al. (Bronstein, Semendjajew, Musiol, Mühlig, Taschenbuch der Mathematik, 5th edition 2001 (German), publisher: Verlag Harri Deutsch, Frankfurt am Main and Thun) and was combined with the Gauß′ error propagation associated with the performed calculation for the normalization. The resulting standard deviation is herein referred to as “combined standard deviation”.
HPEKp cells were cultivated according to the protocol of the provider in CnT-Prime epithelial culture medium (CELLnTEC, #CnT-PR, a fully defined, low calcium formulation, completely free of animal or human-derived components) without addition of further components.
(§3) A compound is considered as a growth inhibitor of HPEKp cells, if—at a reference concentration of 10 μM—the weighted arithmetic mean of the normalized fluorescence intensity values after addition of the corresponding combined standard deviation amounts to 0.9 or lower, in particular to 0.8 or lower, 0.7 or lower, 0.6 or lower, 0.4 or lower, and 0.2 or lower, relative to the overall basis level of 1.0. The overall basis level was calculated as the weighted arithmetic mean of all normalized values from the DMSO control measurements in analogy to the calculations performed for the test-compounds. The corresponding combined standard deviation for the DMSO values amounts to less than 1·10^−2.

[3] = system: HL-60 cells (human acute myeloid leukemia cells); assay: alamarBlue proliferation assay with HL-60 cells; conditions: 120 h, 5 days, relative to DMSO baseline level of 1.0, read-out: AVEw, weighted arithmetic mean of normalized fluorescence intensity values (Activity Range), HL-60 proliferation
Summary of the method: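 HL-60 cells (1000/well, RPMI 1640 + 10% FBS) exposed to compound in 0.1% DMSO for 5 days, then alamarBlue fluorescence read (ex 560/em 590 nm). Signals normalized to six DMSO wells per plate (baseline 1.0); outliers removed by Peirce/Chauvenet; weighted mean with combined SD; inhibitor criterion judged at 20 μM reference concentration.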

[4] = system: CAL-27 cells (human tongue squamous cell carcinoma cells); assay: alamarBlue proliferation assay with CAL-27 cells; conditions: Homo sapiens, 120 h; for activity at 40 µM: relative to DMSO basis level 1.0, read-out: weighted arithmetic mean (AVEw) of normalized fluorescence intensity, activity range; for activity at 20 µM: 5 days, relative to DMSO baseline level of 1.0, read-out: AVEw, weighted arithmetic mean of normalized fluorescence intensity values (Activity Range), CAL-27 proliferation
Protocol: as §1, §2
CAL-27 cells were cultivated according to the protocol of the provider (but at 5% instead of 10% CO2) in DMEM medium (Fisherscientific, #11584456) containing 10% fetal bovine serum (Fisherscientific, #15517589).
as §3, with “of CAL-27” for “of HPEKp”, “of 20” for “of 10”

[5] = system: TT cells (human medullary thyroid carcinoma cells); assay: alamarBlue proliferation assay with TT cells; conditions: Homo sapiens, 120 h, 40 μM, relative to DMSO basis level 1.0, read-out: weighted arithmetic mean (AVEw) of normalized fluorescence intensity, activity range
Protocol: as §1, §2
TT cells were cultivated according to the protocol of the provider in F-12K medium (Fisherscientific, #11580556, or ATCC, #ATCC-30-2004) containing 10% fetal bovine serum (Fisherscientific, #15517589).
as §3, with “of TT” for “of HPEKp”, “of 40” for “of 10”

Row | Compound | fold induction at 10 µM [1] | activity at 10 µM [2] [%] | activity at 20 µM [3] [%] | activity at 40 µM [4] [%] | activity at 40 µM [5] [%] | activity at 20 µM [4] [%]
1 | O=C(O)c1ccc(Oc2ccc(C3C[C@@H]4CC[C@H]3C4)cc2)nc1 (stereo partly drawn) [Compound 086, 6-(4-((1S,4R)-bicyclo[2.2.1]heptan-2-yl)phenoxy)nicotinic acid] | 1.1 to 1.2 | 60 to 70 |  |  |  | 
2 | NC(=O)c1ccc(Oc2ccc(C34CC5CC(CC(C5)C3)C4)cc2)cc1 [Compound 161, 4-(4-((3r,5r,7r)-adamantan-1-yl)phenoxy)benzamide] |  |  | 20 to 40 | 20 to 40 | 40 to 60 | 
3 | CCCCc1ccc(Oc2ccc(C(=O)NO)cc2)cc1 [Compound 167, 4-(4-butylphenoxy)-N-hydroxybenzamide] |  |  | 40 to 60 | 0 to 20 | 20 to 40 | 60 to 70
4 | O=C(NO)c1ccc(Oc2ccc(C3CC4CCC3CC4)cc2)cc1 (stereo not shown) [Compound 185, 4-(4-((1s,4s)-bicyclo[2.2.2]octan-2-yl)phenoxy)-N-hydroxybenzamide] |  | 0 to 20 | 0 to 20 |  |  | 0 to 20
5 | CNC(=O)c1ccc(Oc2ccc(C3C[C@@H]4CC[C@H]3C4)cc2)cc1 (stereo partly drawn) [Compound 210, 4-(4-((1S,4R)-bicyclo[2.2.1]heptan-2-yl)phenoxy)-N-methylbenzamide] |  |  | 20 to 40 | 0 to 20 | 60 to 70 | 70 to 80
6 | CN(C)C(=O)c1ccc(Oc2ccc(C3CC4CCC3CC4)cc2)cc1 (stereo not shown) [Compound 237, 4-(4-((1s,4s)-bicyclo[2.2.2]octan-2-yl)phenoxy)-N,N-dimethylbenzamide] |  |  | 20 to 40 | 20 to 40 | 40 to 60 | 40 to 60
7 | CNC(=O)c1ccc(Oc2ccc(C3CCCCC3)cc2)nc1 [Compound 309, 6-(4-cyclohexylphenoxy)-N-methylnicotinamide] |  |  |  |  | 80 to 90 | 
8 | CCC(C)(C)c1ccc(Oc2ccc(C(=O)N(C)C)cn2)cc1 [Compound 323, N,N-dimethyl-6-(4-(tert-pentyl)phenoxy)nicotinamide] | 1.1 to 1.2 | 70 to 80 | 40 to 60 |  |  | 
9 | CCC(C)(C)c1ccc(Oc2ccc(C(=O)OC)cc2F)cc1 [Compound 374, methyl 3-fluoro-4-(4-(tert-pentyl)phenoxy)benzoate] | 1.1 to 1.2 | 80 to 90 | 80 to 90 |  |  | 
10 | COC(=O)c1ccc(Oc2ccc(C34CC5CC(CC(C5)C3)C4)cc2)c(F)c1 [Compound 389, methyl 4-(4-((3r,5r,7r)-adamantan-1-yl)phenoxy)-3-fluorobenzoate] |  | 20 to 40 | 40 to 60 |  |  | 
11 | O=C(O)c1cnc(Oc2ccc(C34CC5CC(CC(C5)C3)C4)cc2)c(F)c1 [Compound 440, 6-(4-((3r,5r,7r)-adamantan-1-yl)phenoxy)-5-fluoronicotinic acid] |  | 20 to 40 | 70 to 80 |  |  | 
12 | CCOC(=O)c1ccc(Oc2ccc(C3(C(F)(F)F)CC3)cc2)cc1 [Compound 721, ethyl 4-(4-(1-(trifluoromethyl)cyclopropyl)phenoxy)benzoate] | 1.1 to 1.2 | 70 to 80 | 40 to 60 |  |  | 
13 | CCOC(=O)c1ccc(Oc2ccc(C3(C(F)(F)C(F)(F)F)CC3)cc2)cc1 [Compound 722] |  | 40 to 60 | 40 to 60 | 70 to 80 |  | 
14 | CCOC(=O)c1ccc(Oc2ccc(C3(C(F)(F)F)CC3)cc2Cl)cc1 [Compound 729, Ethyl 4-(2-chloro-4-(1-(trifluoromethyl)cyclopropyl)phenoxy)-benzoate] |  |  | 40 to 60 | 20 to 40 | 20 to 40 | 
15 | O=C(O)c1ccc(Oc2ccc(C3(C(F)(F)C(F)(F)F)CC3)cc2)nc1 [Compound 731] |  | 80 to 90 | 80 to 90 |  |  | 
16 | CCOC(=O)c1ccc(Oc2ccc(C3(C(F)(F)F)CC3)cc2)nc1 [Compound 748, ethyl 6-(4-(1-(trifluoromethyl)cyclopropyl)phenoxy)nicotinate] |  |  |  |  | 70 to 80 | 
17 | O=C(NO)c1ccc(Oc2ccc(C3(C(F)(F)F)CC3)cc2)c(F)c1 [Compound 768, 3-fluoro-N-hydroxy-4-(4-(1-(trifluoromethyl)cyclopropyl)phenoxy)benzamide] |  |  | 0 to 20 | 20 to 40 | 0 to 20 | 20 to 40
18 | NC(=O)c1ccc(Oc2ccc(C3(C(F)(F)F)CC3)cc2Cl)nc1 [Compound 801, 6-(2-chloro-4-(1-(trifluoromethyl)cyclopropyl)phenoxy)nicotinamide] |  | 80 to 90 |  |  |  | 
19 | O=C(NO)c1ccc(Oc2ccc(C3(C(F)(F)F)CC3)cc2Cl)nc1 [Compound 810, 6-(2-chloro-4-(1-(trifluoromethyl)cyclopropyl)phenoxy)-N-hydroxynicotinamide] |  | 0 to 20 | 0 to 20 |  |  | 0 to 20
20 | CNC(=O)c1ccc(Oc2ccc(C3(C(F)(F)F)CC3)cc2Cl)nc1 [Compound 819] |  | 70 to 80 | 80 to 90 |  |  | 
21 | CN(C)C(=O)c1ccc(Oc2ccc(C3(C(F)(F)F)CC3)cc2Cl)nc1 [Compound 828, 6-(2-chloro-4-(1-(trifluoromethyl)cyclopropyl)phenoxy)-N,N-dimethylnicotinamide] |  | 70 to 80 | 60 to 70 |  |  | 
